# In patent US9539284B2 (GLOBOASIA, LLC, priority 2006, dated 2017):
# Where “and” joins values, the source holds several entries; their conditions need not be identical. Equal entries are not always repeated. Where two headings read alike, the source gives them in different places.
# Tests used:
# [1] = Fe3+ content per 500 mg compound (selection criterion 3); assay type: physicochemical
# From the text: 3. Appropriate equivalence of ferric ion per gram of compound. The potential ferric compound should contain enough ferric ions to effectively bind with dietary phosphate.
# [2] = cited from earlier work
# [3] = Harvey et al. 1998; cited from earlier work
Compound,"Fe^3+ content per 500 mg compound ([1]; per 500 mg compound, unit mg)",pKa of anionic group [2],other results
CC(=O)/C=C(/C)[O-].CC(=O)/C=C(/C)[O-].CC(=O)/C=C(/C)[O-].[Fe+3] [ferric acetylacetonate],78 mg,–,–
O=C([O-])CN(CCN(CC(=O)[O-])CC(=O)O)CC(=O)[O-].[Fe+3] [ferric EDTA],81 mg,–,–
ferric picolinate,66 mg,–,–
O=C([O-])CC(O)C(=O)[O-].O=C([O-])CC(O)C(=O)[O-].O=C([O-])CC(O)C(=O)[O-].[Fe+3].[Fe+3] (stereo not drawn) [ferric malate],110 mg,pKa = 3.4,–
NCC(=O)[O-].NCC(=O)[O-].NCC(=O)[O-].[Fe+3] [ferric triglycinate],–,pKa = 2.35,Fe^3+ content per 500 mg compound [1]: 100 mg
ferric citrate [reference compound],114 mg,pKa = 6.4,–
CC(=O)[O-].CC(=O)[O-].CC(=O)[O-].[Fe+3] [ferric acetate],–,–,Fe^3+ content per 500 mg compound [1]: 120 mg
ferric aspartate,62 mg,pKa = 1.99,–
C[N+](C)(C)CCO.O=C([O-])CC(O)(CC(=O)[O-])C(=O)[O-].[Fe+3] [ferric choline citrate],–,–,Fe^3+ content per 500 mg compound [1]: 79 mg
ferric ascorbate,121 mg,pKa = 4.04,–
O=C([O-])[O-].O=C([O-])[O-].O=C([O-])[O-].[Fe+3].[Fe+3] [ferric carbonate],–,10.3,Fe^3+ content per 500 mg compound [1]: 191 mg
Cc1occc(=O)c1[O-].Cc1occc(=O)c1[O-].Cc1occc(=O)c1[O-].[Fe+3] [ferric trimaltol],65 mg,–,correcting iron deficiency [3]: capable of correcting iron deficiency
O=C([O-])CN(CCO)CCN(CC(=O)[O-])CC(=O)[O-].[Fe+3] [ferric HEDTA],85 mg,–,–
ferric oleate,31 mg,–,–
ferric tartrate,56 mg and 100 mg,–,"pKa of anionic group, pKa1 ([2]; first pKa): pKa1 = 2.98; pKa of anionic group, pKa2 ([2]; second pKa): pKa2 = 4.34"
CCCCC(CC)C(=O)[O-].CCCCC(CC)C(=O)[O-].CCCCC(CC)C(=O)[O-].[Fe+3] (stereo not drawn) [ferric octoate],58 mg,–,–
O=C([O-])/C=C/C(=O)[O-].O=C([O-])/C=C/C(=O)[O-].O=C([O-])/C=C/C(=O)[O-].[Fe+3].[Fe+3] [ferric fumarate],125 mg,pKa = 3.02,–
ferric gluconate,44 mg,–,–
O=C([O-])C(=O)[O-].O=C([O-])C(=O)[O-].O=C([O-])C(=O)[O-].[Fe+3].[Fe+3] [ferric oxalate],142 mg,pKa = 1.25,–
ferric histidinate,54 mg,–,–
O=C[O-].O=C[O-].O=C[O-].[Fe+3] [ferric formate],–,pKa = 3.75,Fe^3+ content per 500 mg compound [1]: 147 mg
